Reference: paper PMC12610274, “Identification of Marrubiin as a Cathepsin C Inhibitor for Treating Rheumatoid Arthritis” (Molecules, 2025)

Legend:
CTSL = biological target: T1, CTSL (Homo sapiens, UniProt P07711); experiment: Human recombinant cathepsins isolated enzyme assay, CTSL; type: biochemical; conditions: read-out: CTSL Enz (IC50: μM)
T1 construct: purchased R&D Systems
From the text: The protocol for evaluating the inhibitory potency of compounds against other cathepsins referred to the CTSC activity assay. Recombinant human CTSB, CTSL, CTSS and CTSK for testing were also purchased from R&D Systems Biotechnology Company. Recombinant human Cat G, NE, and PR3 For testing were purchased from MedChemExpress. A multi-functional microplate reader was used to measure the absorption of Z-Leu-Arg-AMC at excitation/emission wavelengths of 380/460 nm to assess the activity changes of CTSB and CTSL, while the absorption of MCA-Arg-Pro-Lys-Pro-Val-Glu-NVAL-Trp-Arg-Lys(DNP)-NH2 at 320/405 nm was measured to evaluate the activity changes of CTSS and CTSK. Different assay buffers were prepared for diluting samples and measuring the activities of specific NSPs: a buffer containing 50 mM Tris and 750 mM NaCl (pH 7.4) was used for NE and PR3; a buffer containing 50 mM Tris, 750 mM NaCl, 5 mM EDTA (pH 7.4) was used for Cat G; and a buffer containing 25 mM MES, 50 mM NaCl, 5 mM DTT (pH 6.0) was used for CTSC. Synthetic substrates were employed to assess the activities of NSPs and CTSC: H-Gly-Arg-AMC for CTSC, N-MeSuc-Ala-Ala-Pro-Val-pNA for NE, aminobenzoyl-Val-Ala-Asp-Cys-Ala-Asp-Gln-ethylenediamine 2,4-dinitrophenyl for PR3, and N-Suc-Ala-Ala-Pro-Phe-pNA for Cat G. Each group of tests was independently repeated at least 3 times, and IC50 values were calculated using SPSS 10.0.

[1] = Cytotoxicity assay, U937 cell line; type: cell-based; conditions: human, U937 cells
Procedure: RAW264.7 cells and U937 cells in the logarithmic growth phase were counted and diluted, and the concentrations of the single-cell suspensions of the two types of cells were adjusted to 5 × 10^4 cells/mL and 3 × 10^4 cells/mL, respectively. After thorough mixing, the cells were seeded into a 96-well plate, with 100 μL of cell suspension added to each well. Prepare the working solution of test compounds using the corresponding medium as the solvent, with the concentration of working solution being 2 times the final test concentration (2.5 μM, 5 μM, 10 μM, 20 μM, and 40 μM). Twenty-four hours after cell seeding, the compound working solutions were added to the compound test wells, and the same volume of medium was added to the negative control wells, followed by continuous incubation for another 24 h. Only the wells with the same volume but without cells served as the blank control group. The CellTiter-Lumi™ luminescent cell viability assay kit (Beyotime Biotechnology, Shanghai, China, C0065XL) was used to detect cell viability according to the standard operating procedures. Each group of tests was independently repeated at least 3 times, and IC50 values were calculated using SPSS 10.0.

CTSC = CTSC (Homo sapiens, UniProt P53634); experiment: Human recombinant CTSC isolated enzyme assay; type: biochemical; set-up: purchased R&D Systems; conditions: human recombinant CTSC, cell-free, 12-point dose-response; read-out: CTSC Enz (IC50: nM)
Sequence of CTSC (P53634 25-134 limits assumed): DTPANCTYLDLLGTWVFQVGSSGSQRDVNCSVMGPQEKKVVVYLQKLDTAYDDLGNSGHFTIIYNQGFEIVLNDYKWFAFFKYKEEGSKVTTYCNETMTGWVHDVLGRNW
Sequence of CTSC (P53634 231-394 limits assumed): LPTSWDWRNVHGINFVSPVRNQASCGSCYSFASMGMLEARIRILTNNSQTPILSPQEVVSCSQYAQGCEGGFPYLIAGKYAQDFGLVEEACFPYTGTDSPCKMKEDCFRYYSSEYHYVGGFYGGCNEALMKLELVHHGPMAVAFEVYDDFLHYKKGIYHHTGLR
Sequence of CTSC (P53634 395-463 limits assumed): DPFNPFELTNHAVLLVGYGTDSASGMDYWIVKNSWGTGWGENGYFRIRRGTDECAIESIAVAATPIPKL
Procedure: Both recombinant CTSL and CTSC for in vitro cell-free-based enzymatic activity assay can be purchased from R&D Systems (Minneapolis, MN, USA), a biotechnology company. According to the standardized procedures and material ratios provided by R&D Systems, prepare the activation solution (25 mM MES + 5 mM DTT, pH 6.0) and the assay solution (25 mM MES + 50 mM NaCl + 5 mM DTT, pH 6.0) in advance for later use. Dilute the detection substrate H-Gly-Arg-AMC to a 200 µM solution with the assay solution for standby. Prepare the working solution of compounds to be tested using the assay solution, with the concentration of working solution being 10 times the final test concentration. Dilute CTSC and CTSL, respectively, with cold activation solution. Thoroughly mix the two activation solutions containing the proteins to achieve final concentrations of 300 nM for CTSL and 440 nM for CTSC. After co-incubation for 1 h, the activated CTSC treated with CTSL can be used for the enzymatic activity inhibition efficacy test of compounds. Dilute the activated CTSC to 4.4 nM with cold assay buffer. Incubate 4 μL of the activated CTSC with 1 μL of the compound working solution (test group) or 1 μL of blank assay solution (control group) at room temperature for 3 h. Then, add 5 μL of the detection substrate to achieve a final concentration of 100 μM. Mix 5 µL each of the assay solution and the substrate solution as the blank group. After 1 h, the absorbance of detection substrate was measured using a multifunctional microplate reader at excitation/emission wavelengths of 380 nm/460 nm. The inhibitory efficacy of molecules on enzyme activity was calculated based on the absorbance difference between test group and control group. […] Each group of tests mentioned above was independently repeated at least 3 times, and IC50 values were calculated using SPSS 10.0.

T1 sequence (P07711 114-333): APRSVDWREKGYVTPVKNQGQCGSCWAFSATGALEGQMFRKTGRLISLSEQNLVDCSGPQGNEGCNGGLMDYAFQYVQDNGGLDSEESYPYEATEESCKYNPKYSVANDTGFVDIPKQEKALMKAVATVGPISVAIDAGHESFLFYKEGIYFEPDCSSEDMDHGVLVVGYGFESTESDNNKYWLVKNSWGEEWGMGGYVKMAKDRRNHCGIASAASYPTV

For `C[C@@H]1C[C@H]2OC(=O)[C@@]3(C)CCC[C@@](C)([C@@H]23)[C@@]1(O)CCc1ccoc1` [Marrubiin, marrubiin], the IC50 (CTSL) was 4.4 ± 0.5 µM, the IC50 at 24 h [1] was greater than 10 µM and the IC50 (CTSC) was 57.5 ± 1.3 nM.
